Laboratory results from patent US20250375420A1 (ZYLORION HEALTH INC., priority 2022, published 2025).
Like-named read-outs stand apart in the source and are kept apart here.

Key:
[1] = Dynamic vapor sorption (DVS) analysis; assay type: physicochemical
Method: Moisture sorption isotherms were collected on a DVS Adventure system from Surface Measurement Systems (London, UK). Sample size was circa 10 mg of solid material. A full sorption and desorption isotherm was recorded by varying the relative humidity from 40-95-0-40% in steps of 10% at a constant temperature of 25° C. Weight equilibration per step was set at dm/dt of 0.002%/min. Afterwards the sample was measured by HT-XRPD.

h5HT2a [2] = target: T1, h5HT2a (Homo sapiens, UniProt P28223); experiment: cell-based; assay type: cell-based; set-up: expressed in transfected cells; host or cells: CHO-K1 (AequoScreen line with aequorin in A1; membranes of stably expressing CHO-K1 cells in A3)
Method: AequoScreen CHO-K1 cells stably-expressing h5HT2a contain an aequorin protein that, when bound to Ca^2+, is able to catalyze the breakdown of the molecule coelenterazine to produce light. Emitted light levels are proportional to endoplasmic reticulum Ca^2+ release. CHO-K1 cells were treated with between 0.1 nM-10 μM of each compound for 1 min before chemiluminescence is recorded. Resulting data are then fit to a three parameter non-linear regression to determine potency (EC50) and efficacy (Emax). Data were fit to a three-parameter non-linear regression in GraphPad (v. 9). n=3-29 independent experiments performed in duplicate or triplicate. Data are expressed as mean±SEM.

h5HT2a [3] = target: T1, h5HT2a; experiment: cell-based; assay type: cell-based; set-up: expressed in transfected cells; host or cells: CHO-K1
Method: Compound activity was quantified as βarrestin2 recruitment from CHO-K1 cells expressing h5HT2a and treated with 0.1 nM-10 μM compounds.
CHO-K1 cells express h5HT2a-smBIT and βarrestin2-lgBiT fusion proteins. When h5HT2a and βarrestin2 come into contact with one another the smBIT and IgBIT peptides complement each other to produce a complete NanoBit luciferase enzyme. When complete, the enzyme is able to catalyze the breakdown of the molecule coelenterazine to produce light. Emitted light levels are proportional to interactions between h5HT2a and βarrestin2. CHO-K1 cells were treated with between 0.1 nM-10 μM of each compound for 2 h, during which period chemiluminescence is recorded. Area under the curve data for cumulative chemiluminescence are then fit to a three-parameter non-linear regression to determine potency (EC50) and efficacy (Emax). Data were fit to a three-parameter non-linear regression in GraphPad (v. 9). n=3-13 independent experiments performed in duplicate or triplicate. Data are expressed as mean±SEM.

C57BL/6 mice [4] = experiment: Head-twitch response (HTR); assay type: in vivo, mouse; conditions: i.p.
Method: C57BL/6 mice were treated with increasing doses of compounds as indicated via i.p. injection. Mice were placed inside a clear cylinder and video recorded for 10 min immediately after compound administration. Head-twitch was recorded by an individual blinded to treatment as a lateral, rhythmic shaking of the head distinct from grooming or vertical head nod. Data were plotted in GraphPad (v. 9). n≥3 animals per dose. Data are expressed as mean±SEM.

C57BL/6 mice [5] = experiment: Body temperature relative to baseline (rectal thermometer); assay type: in vivo, mouse; conditions: i.p., increasing doses, 20 min after administration
Method: (§1) Compound activity was quantified in C57BL/6 mice for catalepsy (10 min) (top), nociception in the tail flick latency test (15 min) (middle), and body temperature relative to baseline (20 min) (bottom).
(§2) C57BL/6 mice were treated with increasing doses of compounds as indicated via i.p. injection. Tests were as follows: Body temperature is taken before administration of the first dose of compound for baseline. Catalepsy—the bar holding assay, 10 min after compound administration. Mice are placed such that their forepaws clasp a 0.7 cm ring clamp positioned 4.5 cm above the surface of the testing space. The length of time the ring is held is recorded (sec). The trial is ended if the mouse turns its head or body, or makes 3 consecutive escape attempts, to a maximum of 60 sec. Nociception—15 min after compound administration the mouse's tail is placed in 52° C. water. Latency to remove the tail from water is recorded to a maximum of 20 sec. Body temperature—rectal thermometer 20 min after compound administration. Data were plotted in GraphPad (v. 9). n≥6 animals per dose. Data are expressed as mean±SEM.

C57BL/6 mice [6] = experiment: Nociception, tail flick latency test (52° C. water); assay type: in vivo, mouse; conditions: i.p., increasing doses, 15 min after administration
Method: as §1, §2

C57BL/6 mice [7] = experiment: Elevated plus maze (EPM); assay type: in vivo, mouse; conditions: 3 mg/kg i.p., 30 min, preliminary
Method: Representative movement traces from Ethovision in male C57BL/6 mice (top, right).
C57BL/6 mice were treated 3 mg/kg of compounds via i.p. injection. Mice are placed in the EPM 30 min after compound administration. The EPM measures 1 m×1 m and the test lasts for 5 min. Total distance travelled, velocity, arm entries, and time in each arm are recorded and analyzed using EthoVision XT (Noldus, v. 17). Data were plotted in GraphPad (v. 9). n=3-5 animals per treatment. Data are expressed as mean±SEM.

C57BL/6 mice [8] = experiment: Catalepsy, bar holding assay; assay type: in vivo, mouse; conditions: i.p., increasing doses, 10 min after administration
Method: as §1, §2

C57BL/6 mice [9] = experiment: Open field task (OFT); assay type: in vivo, mouse; conditions: i.p., 30 min after administration; significant for movement and velocity, not time in center, at 7 or 10 mg/kg
Method: C57BL/6 mice were treated with increasing doses of compounds as indicated via i.p. injection. Mice are placed in the open field 30 min after compound administration. The open field measures 1 m×1 m and the test lasts for 5 min. Total distance travelled, velocity, and time spent in the central quadrant of the field are recorded and analyzed using Etho Vision XT (Noldus, v. 17). Data were plotted in GraphPad (v. 9). n≥4 animals per dose. Data are expressed as mean±SEM.

h5HT2a [10] = target: T1, h5HT2a; experiment: biochemical; assay type: binding; set-up: expressed in transfected cells; host or cells: CHO-K1 (AequoScreen line with aequorin in A1; membranes of stably expressing CHO-K1 cells in A3); conditions: 1 nM [3H]ketanserin, 0.1 nM-10 μM compound, 2 h
Method: CHO-K1 cells stably-expressing h5HT2a are grown, collected, and frozen at −80° C. Cells are thawed as needed and subjected to pressure cavitation using a Dounce homogenizer to rupture cell membranes. Cell membranes are then collected by subjecting cell lysates to high-speed centrifugation at 20,000×g for 30 min at 4° C. Homogenization and centrifugation are repeated to enrich the sample for receptor-containing cell membranes. CHO-K1 cell membranes are the co-incubated with 1 nM [^3H]ketanserin and between 0.1 nM-10 μM of each compound for 2 h. Samples are then pipetted onto filter paper before being rinsed and washed by vacuum filtration three times, dried, and incubated overnight in scintillation fluid. […] Resulting data are then fit to a three-parameter non-linear regression to determine affinity (Ki). […] Data are expressed as mean±SEM.

[11] = βarrestin2 recruitment, CHO-K1 h5HT2a

T1 sequence (P28223 whole entry): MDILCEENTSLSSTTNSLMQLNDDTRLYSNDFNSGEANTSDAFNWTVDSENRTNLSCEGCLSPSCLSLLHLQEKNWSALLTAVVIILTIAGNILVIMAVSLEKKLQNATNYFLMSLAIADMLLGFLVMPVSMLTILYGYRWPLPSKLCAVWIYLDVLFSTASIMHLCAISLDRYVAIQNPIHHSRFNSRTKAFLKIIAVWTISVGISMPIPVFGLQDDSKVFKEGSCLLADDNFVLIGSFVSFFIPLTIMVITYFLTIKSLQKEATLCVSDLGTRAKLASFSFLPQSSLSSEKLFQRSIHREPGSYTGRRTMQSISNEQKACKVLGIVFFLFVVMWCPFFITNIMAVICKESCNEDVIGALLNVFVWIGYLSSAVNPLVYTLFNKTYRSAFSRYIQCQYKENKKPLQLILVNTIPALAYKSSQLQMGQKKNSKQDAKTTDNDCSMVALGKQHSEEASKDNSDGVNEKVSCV

CCc1cc(/C(C)=N/OCc2ccc(C3CCCCC3)c(C(F)(F)F)c2)ccc1CN1CC(C(=O)O)C1.CCc1cc(/C(C)=N/OCc2ccc(C3CCCCC3)c(C(F)(F)F)c2)ccc1CN1CC(C(=O)O)C1.O=C(O)/C=C/C(=O)O [Crystalline Form A]
hygroscopicity according to the EP hygroscopicity classification ([1]; DVS, 25° C.): moderately hygroscopic | total mass difference between 0-95% RH ([1]; DVS, 25° C.): 3.6% | physical stability after the sorption-desorption cycle (XRPD) ([1]; solid recovered after DVS): physically stable

CCN(CC)C(=O)[C@@H]1C=C2c3cccc4[nH]cc(c34)C[C@H]2N(C)C1 [LSD]
Emax (%) ± S.E.M. (h5HT2a [2]): 100 ± 9.9% | Emax (%) ± S.E.M. (h5HT2a [3]): 100 ± 16% | time of peak head-twitch effect post-compound administration (C57BL/6 mice [4]; at several tested doses): around 7 min

CNCCc1c[nH]c2cccc(O)c12 [Norpsilocin]
Emax (%) ± S.E.M. (h5HT2a [2]; Ca2+ release, CHO-K1 h5HT2a): 45 ± 14% | Emax (%) ± S.E.M. (h5HT2a [3]; [11]): 2.9 ± 27%

CN(C)CCc1c[nH]c2cccc(O)c12 [Psilocin]
body temperature (C57BL/6 mice [5]): dose-dependent hypothermia | Emax (h5HT2a [2]; Ca2+ release, CHO-K1 h5HT2a): 89 ± 11% | Ca2+ release activity (in words) (h5HT2a [2]; h5HT2a-dependent Ca2+ release): potent activator of Ca^2+ release | pain perception (nociception) (C57BL/6 mice [6]): significantly reduces pain perception peaking at 1 mg/kg | closed arm time (C57BL/6 mice [7]; p=0.029, unpaired t-test): significantly reduces closed arm time | open arm time (C57BL/6 mice [7]; p=0.12, unpaired t-test): but not open arm time | arm entries (C57BL/6 mice [7]): no significant differences in arm entries | overall movement and velocity in EPM (C57BL/6 mice [7]): trend toward reduced overall movement and velocity | catalepsy (C57BL/6 mice [8]): do not produce catalepsy | potency in Ca2+ release assay compared with βarrestin2 recruitment assay (h5HT2a [3]; comparison of the two h5HT2a assays): greater in the Ca^2+ release assay than the βarrestin2 recruitment assay | βarrestin2 recruitment activity (in words) (h5HT2a [3]; h5HT2a-dependent βarrestin2 recruitment): activator of βarrestin2 recruitment | Emax (h5HT2a [3]; [11]): 89 ± 22% | head-twitch response (C57BL/6 mice [4]; 0-10 min after administration): time-dependent head-twitch response | movement, velocity and time in the center of the open field (C57BL/6 mice [9]): dose-dependent decrease in movement, velocity, and time in the center of the open field

CN(C)CCc1c[nH]c2cccc(OP(=O)(O)O)c12 [Psilocybin]
Emax (h5HT2a [2]; Ca2+ release, CHO-K1 h5HT2a): 69 ± 15% | EC50 (h5HT2a [2]; Ca2+ release, CHO-K1 h5HT2a, 0.1 nM-10 μM, 1 min): 1500 nM | Ki (h5HT2a [10]): 390 nM | catalepsy (C57BL/6 mice [8]): do not produce catalepsy | Emax (h5HT2a [3]; [11]): -34 ± 5.9% | pEC50 ± S.E.M. (h5HT2a [3]; βarrestin2 recruitment, CHO-K1 h5HT2a, 0.1 nM-10 μM, 2 h, AUC): Not Converged
